These are literature values, as cited in patent US8664392B2, “Pyrazine derivatives for bioconjugation” (MediBeacon, LLC, priority 2004, dated 2014).

The conditions of the data set: absorb and emit in the blue to orange regions.

Each structure is given as a SMILES string.

As to `Nc1nc(C(=O)O)c(N)nc1C(=O)O` [3,6-diamino-2,5-pyrazine-dicarboxylic acid], the Stokes shift is approximately 100 nm.
